The source of these data is patent EP0407582A1, “DERIVATIVES OF TRICHLOROPHOSPHAS[…] INSECTICIDAL, VIRICIDAL, HEMATOCIDAL, FUNGICIDAL AND OVOCIDAL PREPARATIONS BASED ON THEM” (priority 1989, dated 1990).

Like-named read-outs stand apart in the source and are kept apart here.

Series [1] relates to pig ascarid ovigerms. Kind of series: Ovocidal activity on watch glasses, 2% solution. The class given is in vivo. Particulars: concentration 2 %. The protocol: An ovocidal composition based on this compound was prepared in the form of a 2% solution thereof in distilled water. An ovocidal activity of the composition, according to the invention, was tested as follows.
A drop of a suspension containing at least 1.000 ascarid ovigerms was placed onto the watch glasses followed by adding thereto by 1 ml of the composition of the invention. Thereafter the watch glasses were put them into a humid chamber of a thermostat at a temperature of 24 - 26 °C. In every […] the watch glasses with ascarid ovigerms and with the composition of the invention were withdrawn from the thermostat and washed with distilled water for 2-3 times.
Then, the washed ascaride ovigerms were cultured for 30 days at a temperature of 24 - 26 °C. To determine the number of dead and viable ovigerms 200 ova were visualized under a microscope in every 3-5 days. Their death was determined by lack of the development of ovigerms up to the stage of larva and the.presence of destructive morphological changes for 30 days. An ovocidal activity of known composition based.on carbathion was determined by the same procedure. Control was carried out under the same conditions by adding a physiological saly solution. The death percentage of ova was estimated as a mean value of three results with the correction for death of ovigerms in the control and in comparison with the known compositions.

Series [2] has as its system pig ascaride ovigerms. In words: Ovocidal activity on watch glasses, 3% solution, laboratory test. The class given is in vivo. The settings on record: Sus scrofa, read-out: % Death of ovigerms Tests laboratory. The protocol: A drop of a suspension containing at least 1,000 ascarid ovigerms was placed onto watch glasses followed by adding one droplet of a 3% solution of the composition of the invention. Thereafter, they were put into a humid chamber of a thermostat at a temperature of 24-26 °C. In every 24 hours during 3 days the watch glasses with ascarid ova and the composition of the invention were withdrawn from the thermostat and washed with distilled water 2-3 times.
Then, the washed ascarid ovigerms were incubated for 30 days at a temperature of 24 - 26-°C. To determine the number of dead and viable ova, 200 ovigerms were observed by means of a microscope every 3 - 5 days. The death was determined by lack of ova development for 30 days up to the stage of a mobile larva and the presence of destructive morphological changes: shrinkage and deformation of embryos, rupture of shells. The known composition - carbathion was tested under the same conditions by adding a solvent. The percentage death of ova was estimated as a mean value of three results with a correction for ova death in the control and_in-comparison with the known composition.

The test system of series [3] is helminthic ova. Kind of series: Ovocidal activity, large-scale disinfection of ambient objects. Particulars: 3% aqueous solution; ambient objects (equipment, tableware, hands); read-out: % Death of ovigerms Tests large-scale. As for the experimental part: Based on this compound, there was prepared the ovocidal composition in the form of 3% solution thereof. The ovocidal activity of the composition, according to the invention, was tested disinfection of ambient objects (equipment, tableware, hands). For this purpose, a 3% aqueous solution of the compound, according to the invention, was used for treating said objects. The. efficiency of the ovocidal action was determined by the number of helminthic ova in washings from the ambient objects before and after treating them with the ovocidal composition of the invention.

Series [4] relates to invasion larvae of a root-knot nematode. In words: Nematocidal activity, laboratory test. The class given is in vivo. Particulars: Meloidogyne javanica; 1% solution in water; 24 hrs; read-out: Larva death, % Tests laboratory. As for the experimental part:
(§1) The process was carried out in manner similar to that described in Example 3. […] The insecticidal activity was tested in a manner similar to that described in Example 3. A nematocidal composition based on the compound.-was prepared which was its 1% solution in water. A nematocidal effect of the composition was tested in laboratory conditions to the invasion larvae of a root-knot nematode. For testing it, one drop of a suspension containing 100 invasion larvae of root-knot nematodes was placed onto the cover glasses having cells. Thereafter, one drop of the nematocidal composition of the invention was put thereto. One drop of distilled water instead of the test composition was placed into the control cell..The glasses with test and control cells were put on a moisten ashless filter of a Petri dish, and 24 hrs later the killed nematodes were registered. The tests were repeated three times. The nematocidal activity of the composition, according to the invention was tested in comparison with the known nematocidal preparation containing 0,0-dimethyl-0-2,2/dichlorovinyl/phosphate. The field tests were carried out at the 5 m^2 plots affected by tomato nematodes. For testing it, the plots were treated with the nematocidal composition of the invention and the known nematocidal composition.

Series [5] deals with tomato nematodes. Kind of series: Nematocidal activity, field test on 5 m2 plots. The class given is in vivo. Particulars: 1% solution in water, read-out: Larva death, % Tests field. The protocol: as §1
Series [6] can be described thus: Solubility in water and organic solvents. The class given is physicochemical. Particulars: qualitative, solvents named.
For series [7], the system named is domestic flies. Kind of series: Insecticidal activity, laboratory test in gauze boxes. The class given is in vivo. Particulars: 0.25% solution in 5% aqueous glucose solution; death rate estimated in 48 - 72 hours. As for the experimental part: An insecticidal composition based thereon, which was a 0.25% solution of this compound in a 5% aqueous glucose solution, was prepared. The laboratory and large-scale tests of the activity of an insecticidal composition of the invention was conducted on domestic flies. for laboratory tests into the gauze-made boxes (10x10 cm, 6 boxes), there were placed 6-7-day flies of both sexes by 50 individuals per each box. Into 5 boxes there were placed Petri dishes containing the insecticidal composition of the invention. The death rate of flies was estimated-in 48 - 72 hours. A Petri dish containing a 5% aqueous solution of glucose was placed into the control box. The insecticidal activity of the composition, according to the invention, was tested in comparison with a known insecticidal composition containing 0,0-dimethyl-/1-hydroay-2,2-trichloroethyl/phosphonate.

Series [8] has as its system domestic flies. Kind of series: Insecticidal activity, large-scale test in living and industrial premises. Type of series: in vivo. Particulars: 0.25% solution with 5% glucose solution, 2-3 dishes per 20 m2; 72 hours. As for the experimental part:
The large-scale tests of the activity of the insecticidal composition, according to the invention, was conducted on domestic flies in living and industrial premises. Petri dishes containing a 0.25% aqueous solution of the insecticide, according to the invention, added with a 5% glucose solution, were put at a rate of 2-3 dishes per 20 m2. The .activity of the composition of the invention was estimated by a direct count of dead insects in 72 hours or by using the adhesive tapes, counting the number of flies on the tape prior and after carrying out the test.

Series [9] concerns hepatitis B virus. Kind of series: Virucidal activity, suspension method under protein loading, counter-current immunoelectrophoresis. Particulars: concentration 1 %.
In series [10] the test system is influenza A virus. In words: microbe, parasite or virus in culture. Also on record: species or system strain of influenza A1 virus. The settings on record: concentration 1 %.
The subject of series [11] is poliomyelitis virus. In words: microbe, parasite or virus in culture. The class given is cell-based, poliomyelitis-II virus. Particulars: concentration 1 %.
In series [12] the test system is leaves of tomatoes and cucumbers. In words: Phytotoxicity of the nematocidal composition. The class given is in vivo. The settings on record: 1% solution in water.
Series [13] deals with mice and rats. Particulars: cited from earlier work.
Where [14] appears, read: 24 h, read-out: Death of ascarid ovigerms (%) in 24 h.
Setting [15] is: 48 h, read-out: Death of ascarid ovigerms (%) in 48 h.

In the case of `CNC(=S)S` [carbathion, sodium N-methyldithiocarbamate dihydrate], the killing at 2 % amounted to 60% in series [1] (setting [14]) and 80% in series [1] (setting [15]). Besides, the figures for the killing at 3 % in series [2] and in series [3] were 60% and 59%, respectively.

For the compound `COP(=O)(OC)OC=C(Cl)Cl` [Known nematocidal preparation, 0,0-dimethyl-0-/2,2-dichlorovinyl/phosphate], the killing at 1 % in series [4] is 88.1%. Besides, the mortality at 1 % in series [5] was found to be 76%.

Regarding `O=C(N[C@H](COP(=NC(=O)C(Cl)(Cl)Cl)(OC[C@@H](NC(=O)C(Cl)Cl)[C@H](O)c1ccc([N+](=O)[O-])cc1)OC[C@@H](NC(=O)C(Cl)Cl)[C@H](O)c1ccc([N+](=O)[O-])cc1)[C@H](O)c1ccc([N+](=O)[O-])cc1)C(Cl)Cl` [Example 7, d(-)--threo-3-para-nitrophenyl-2-dichloroacetamido-3-hydroxypro-poxyphosphazotrichloroacetyl], the killing at 3 % was determined as 100% in series [2] and 98% in series [3]. In addition, the solubility entry in series [6] is “soluble.in water, alcohols, acetone,--benzene, toluene”.

Consider `O=C(N=P(OC(CCl)c1ccccc1)(OC(CCl)c1ccccc1)OC(CCl)c1ccccc1)c1ccccc1` (stereo not drawn) [Example 3, tris/2-chloro-1-phenylethoxy/phosphazobenzoyl], for which the “Death of flies, % Tests laboratory” value in series [7] is 100%. Also, the “Death of flies, % Tests large-scale” value in series [8] was determined as 100%. For the same compound, the killing at 1 % in series [4] stood at 100%; in series [9] (0.25 h, 15 min, read-out: Death of viruses (%) under exposure, Hepatitis B, 15 min) it was 75%; in series [9] (0.5 h, 30 min, read-out: Death of viruses (%) under exposure, Hepatitis B, 30 min), 100%; in series [9] (1 h, 60 min, read-out: Death of viruses (%) under exposure, Hepatitis B, 60 min), 100%; in series [10] (0.25 h, 15 min, read-out: Death of viruses (%) under exposure, Influenza A, 15 min), 30%; in [10] (0.5 h, 30 min, read-out: Death of viruses (%) under exposure, Influenza A, 30 min), 50%. In addition, the killing at 1 % in series [10] (1 h, 60 min, read-out: Death of viruses (%) under exposure, Influenza A, 60 min) was found to be 100%; in series [11] (10 min, 10 min, read-out: Death of viruses (%) under exposure, Poliomyelitis, 10 min) it was 20%; in [11] (0.5 h, 30 min, read-out: Death of viruses (%) under exposure, Poliomyelitis, 30 min), 50%; in [11] (1 h, 60 min, read-out: Death of viruses (%) under exposure, Poliomyelitis, 60 min), 70%. The mortality at 1 % in [5] came to 100%. Besides, the killing at 2 % in [1] (setting [14]) came out at 68.1%; in [1] (setting [15]) it was 93.4%; in series [1] (72 h, read-out: Death of ascarid ovigerms (%) in 72 h), 100%. The “phytotoxic effects on the leaves of tomatoes and cucumbers” value in series [12] is reported as “no phytotoxic effects”. Moreover, the solubility entry in [6] was “soluble in water, alcohols, acetone, benzene, toluene”.

In the case of “0,0-dimethyl(1-hydroxy-2,2,2-trichloroethyl) phosphonate [Known insecticidal composition]”, the “Death of flies, % Tests laboratory” value in [7] is listed as 85%. Besides, the “Death of flies, % Tests large-scale” value in series [8] came out at 83%. Besides, in series [13], the LDSO is 225 to 1200 mg/kg.
